Data on one compound can be found in publication PMC11707430, “Novel antibiotics against Staphylococcus aureus without detectable resistance by targeting proton motive force and FtsH” (MedComm, 2025).

In data set [1] the test system is S. aureus. The experiment in a line: Drug combination by checkerboard dilution assay. Type of data set: cell-based. Conditions: STK848198 with SM, TOB, AMP, fosfomycin, SIS, gentamycin. How it is done: Drug combination assay. The potential combinational antimicrobial effects between individual drugs were determined by checkerboard dilution assay. Briefly, overnight cultured S. aureus was diluted in MH broth to ~1× 10^6 CFU/mL. Compounds were two-fold diluted by MH broth, then 50 μL of each compound were added to each well vertically and horizontally, respectively, in a 96-well cell culture plate. […] The fractional inhibitory concentration index (FICI) was calculated as (MICA in combination/MICA alone) + (MICB in combination/MICB alone)^20.

A short description of data set [2]: Liver microsomal metabolism analysis. Type of data set: in vitro ADME. Conditions: human; liver microsomes in vitro. How it is done:
Liver microsomal metabolism analysis. Human liver microsome (20 mg protein/mL) was purchased from IPHASE (Beijing, China). One microliter of C218-0546 or STK848198 (200 μM) was incubated with 2 μL of liver microsome in the presence or absence of NADPH. Phenacetin (100 μM) was used as a positive control. After incubation at 37℃ for 0, 15, 30, 45, 60 and 90 min, respectively, the samples were cooled on ice and added with 500 μL of stop solution. The remained compounds were quantified with a LC-MS (Triple Quad™ 5500, AB SCIEX, USA).
Background: Liver microsomes are vesicles of endoplasmic reticulum, rich in cytochrome P450 enzymes.

In data set [3] the test system is S. aureus ATCC 43300. The experiment in a line: S. aureus-related abscess model. Type of data set: in vivo, ICR mice. Conditions: STK848198 combined with AMP, s.c. How it is done: S. aureus-related abscess model. Six to seven-week-old female, specific pathogen free outbred ICR mice were anesthetized with 1% sodium pentobarbital (50 mg/kg). The back hair was shaved with an electric razor. A 50 μL of S. aureus ATCC 43300 suspension containing 1× 10^8 CFU/ml cells was subcutaneously injected (s.c.) into the back of the mice. The mice were randomized into four groups (N = 5-6 mice per group): (1) Vehicle group, (2) C218-0546 (30 mg/kg) or STK848198 (30 mg/kg) treatment group, (3) Amikacin (25 mg/kg) treatment group, (4) C218-0546 ([…]) treatment group. Each group was administrated by s.c. after 1h post infection. The mice were sacrificed at 24h post infection, and their lesions were removed and homogenized for viable bacterial cells counting. Meanwhile, the lesions were dislocated and immersed in 4% paraformaldehyde for hematoxylin-eosin (H&E) staining, Giemsa staining and immunohistochemical analysis, respectively^22.

The subject of data set [4] is S. aureus ATCC 43300. The experiment in a line: Periprosthetic joint infection (PJI) model. Format: in vivo, ICR mice. The conditions noted are these: i.p.
The test system of data set [5] is S. aureus. The experiment in a line: MIC determination by microbroth dilution. Type of data set: cell-based, Staphylococcus aureus. The conditions noted are these: Staphylococcus aureus; structure-activity relationship of C218-0546 analogs (Figure S1); read-out: MIC. How it is done: Minimal inhibitory concentration (MIC) determination. The detection of MIC was performed by the microbroth dilution method with reference to the previously report by Wang et al^2. Briefly, the fresh bacterial suspension was adjusted to a McF standard equivalent of 0.5 (~1.5 × 10^8 CFU/mL) and then 100-fold diluted with MH broth. Fifty microliters of bacterial suspension with equal volume of serially diluted compounds (1-128 µg/mL) were added into a 96-well cell plate (Corning Costar, the United States) and incubated at 37°C for 16-18 h. The bacterial suspension without compounds was used as a negative control. The lowest concentration that inhibited visible bacterial growth was considered as the value of MIC.

In the next data set the target is T1, hERG (Homo sapiens, UniProt Q12809).
T1 construct: expressed in transfected cells; host or cells: HEK293
T1 sequence (Q12809 whole entry): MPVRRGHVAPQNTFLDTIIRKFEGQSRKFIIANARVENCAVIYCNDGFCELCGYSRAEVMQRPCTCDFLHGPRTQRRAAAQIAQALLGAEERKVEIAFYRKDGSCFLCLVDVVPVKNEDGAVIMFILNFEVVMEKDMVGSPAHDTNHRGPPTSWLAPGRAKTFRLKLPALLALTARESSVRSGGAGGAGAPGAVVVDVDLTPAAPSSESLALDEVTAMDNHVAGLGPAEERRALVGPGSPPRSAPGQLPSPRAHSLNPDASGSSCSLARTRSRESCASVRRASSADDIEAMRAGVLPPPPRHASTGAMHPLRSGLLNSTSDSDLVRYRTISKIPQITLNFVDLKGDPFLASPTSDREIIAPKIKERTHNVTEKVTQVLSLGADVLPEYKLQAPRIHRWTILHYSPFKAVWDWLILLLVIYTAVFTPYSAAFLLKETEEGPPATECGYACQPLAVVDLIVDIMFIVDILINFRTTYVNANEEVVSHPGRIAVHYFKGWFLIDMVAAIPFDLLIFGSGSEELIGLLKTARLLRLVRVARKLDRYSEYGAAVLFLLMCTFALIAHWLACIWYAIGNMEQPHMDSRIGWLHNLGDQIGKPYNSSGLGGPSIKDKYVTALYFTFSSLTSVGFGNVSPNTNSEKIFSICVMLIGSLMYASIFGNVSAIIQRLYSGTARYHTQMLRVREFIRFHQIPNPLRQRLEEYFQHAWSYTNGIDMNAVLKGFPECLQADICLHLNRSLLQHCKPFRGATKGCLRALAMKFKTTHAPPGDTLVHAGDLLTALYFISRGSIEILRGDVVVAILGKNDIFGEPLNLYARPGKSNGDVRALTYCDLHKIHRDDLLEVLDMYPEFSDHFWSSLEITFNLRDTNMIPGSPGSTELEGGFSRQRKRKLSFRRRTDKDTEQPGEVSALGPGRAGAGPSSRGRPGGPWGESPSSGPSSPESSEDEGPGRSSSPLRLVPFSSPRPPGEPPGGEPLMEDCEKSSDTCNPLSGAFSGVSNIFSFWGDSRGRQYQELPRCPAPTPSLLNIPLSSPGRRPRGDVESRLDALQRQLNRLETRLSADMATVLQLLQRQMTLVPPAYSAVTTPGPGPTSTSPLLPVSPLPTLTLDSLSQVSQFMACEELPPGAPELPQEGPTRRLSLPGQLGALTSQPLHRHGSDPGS
The data set can be described thus: hERG patch clamp. Type of data set: cell-based. Conditions: HEK293 cells expressing hERG channels, pH 7.4, hERG potassium channels. (The hERG channel carries a current that helps repolarise heart muscle cells.)

The test system of a further data set is HSF. The experiment in a line: Cytotoxicity by CCK-8. Type of data set: cell-based, human. As for the experimental part: Cytotoxicity assessment by Cell Counting Kit-8 (CCK-8). The CCK-8 (DojinDo, Japan) was used to detect the cytotoxicity of compounds on human cell lines (LO2, HepG2, and HSF). Briefly, log phased cells were diluted with its optimal medium to ~4000 cells/well in a 96-well plate. After incubation at 37 ℃ with 5% CO2 for 24h, the unadhered cells were removed by PBS washing, and serially diluted compounds were added to each well for 24h incubation at 37 ℃ with 5% CO2. Then, 10 µL of CCK-8 was added to each well and the absorbance at 450 nm (A450nm) was recorded after 3 h of incubation^17.

In another data set the test system is Human RBCs. The data set can be described thus: Red blood cell (RBC) lysis assay. Type of data set: cell-based. Conditions: 1 h. As for the experimental part: Red blood cell (RBC) lysis assay. Human RBCs (Hemo Pharmaceutical and Biological Co.) were suspended in 1× PBS and diluted to a final concentration of 4% (vol/vol). The RBCs suspension was then incubated with serially diluted compounds at 37°C for 1h. Then, the supernatant was collected by centrifugation and the absorbance at 570 nm […]) was measured. Triton X-100 (0.1%, vol/vol) and DMSO (1%, vol/vol) were served as positive and negative controls, respectively^16.

Data set [6] in a line: In vivo toxicity analysis. Also on record: species or system ICR mice. Conditions: acute, i.p. 30 mg/kg, 24 h. How it is done:
In vivo toxicity analysis. For acute in vivo toxicity determination, specific ICR female mice (N = 6 per group) were randomly divided into 3 groups. The mice were intraperitoneally injected with EL+ ethanol (vehicle group), or 30 mg/kg of […]=0546 or STK848198. Twenty-four hours post-administration, blood samples were collected from the ophthalmic venous plexus and the hematological parameters of white blood cell count (WBC), neutrophil ratio (N%), red blood cell count (RBC), hemoglobin levels (HGH), and platelet count (PLT) were measured. Meanwhile, serum samples were also collected by centrifuged at 4000 rpm for 10 min. And the biomarkers of alanine aminotransferase (ALT), urea nitrogen (BUN), and creatine kinase (CK) for liver, kidney and heart function monitoring, respectively, were also analyzed. Then, the mice were euthanized, and the organs of heart, liver, spleen, lungs and kidneys were removed and fixed in 4% neutral paraformaldehyde for Hematoxylin and eosin (H&E) staining. In addition, for 7-day in vivo toxicity detection, specific ICR female mice (N=5 per group) were intraperitoneally injected with 30 mg/kg of […]=0546 or STK848198 every day for a total of 7 days. The body weight was monitored, and the blood samples and organs were also collected and analyzed as described above^43.

≈ marks a conversion by molar mass, not a printed value. Bounds are passed on as bounds.

As usually defined, the half-life is how long it takes for the measured level to halve. High values mean slow loss, low ones fast loss. As usually defined, the MIC is the lowest concentration found to suppress growth. One may read the IC50 as the point on the concentration scale where inhibition reaches its midpoint.

Procedure for hERG: hERG. hERG channels expressed HEK293 cell line was cultured in DMEM at 37℃ with 10% FBS to ~70% of log phase. Then, the cells were washed with PBS and digested with trypsin. After incubation at 37 ℃ for 2-3 min, the cells were washed again and adjusted to ~ 2×10^3/mL. The patch clamp detection experiment was performed after the cells attached to the cell wall. The extracellular fluid was prepared as 137 mM NaCl,1 mM MgCl2‧6H2O, 4 mM KCl,1.8 mM CaCl2‧2H2O, 10 mM D-Glucose, 10 mM HEPES, pH=7.4. And the intracellular fluid was prepared as 140 mM KCl,10 mM EGTA, 5 mM MgCl2‧6H2O, 10 mM HEPES, 5 mM Mg-ATP, pH=7.2. The current data was collected by using Pathmaster software. And the peak current inhibition rate was calculated as: (1−Peak tail current compoundPeak tail current veℎicle). The concentration-effects were fitted by the Hill equation: I=Imax∙(1/［1+（C1/2/［C］）^h), where [C], C1/2, and h represented the drug concentration, half inhibitory concentration (IC50), Hill coefficient, respectively^19.

With `Cc1nc2c(-c3ccc(Cl)cc3)cnn2c(O)c1Cc1ccccc1` [STK848198], the FICI with S. aureus [1] was no more than 0.5. This compound returned a half-life in data set [2] of 43.6 min. The “in vivo synergy, viable cell counts in abscess” value with S. aureus ATCC 43300 [3] is recorded as “exhibited synergy”. Besides, the “bacterial viable cell loads in infected joint” value with S. aureus ATCC 43300 [4] (day 5, AMP 25 mg/kg combined with STK848198 30 mg/kg) was “effectively reduce the bacterial viable cell loads”. Further, the “bacterial loads in the joint and its surrounding tissue” value in the data set with S. aureus ATCC 43300 [4] (day 7, alone or in combination) is listed as “reduce the bacterial loads”. Further, the MIC with S. aureus [5] is 2 µg/mL (≈ 5.72 µM). The compound also displayed an IC50 on hERG greater than 30 µM. Besides, the cytotoxicity result in the data set on HSF is reported as “no toxicity”. For the same compound, the hemolysis activity entry in the data set with Human RBCs is given as “No hemolysis activity”. In data set [6], the “erythrocyte, leukocyte, platelet parameters, ALT, BUN, CK vs vehicle” value was “No significant difference”.
